In patent US20200131196A1 (Mount Tam Therapeutics, Inc., priority 2017, published 2020):
Read-outs that look alike come from different tables or passages of the source.

What was measured:
SK-UT-1 = test: OncoPanel cell proliferation assay, SK-UT-1
Description: Cells were seeded into 384-well plates and incubated in a humidified atmosphere of 5% CO2 at 37° C. Compounds were added the day following cell seeding. At the same time, a time zero untreated cell plate was generated. After a 3-day incubation period, cells were fixed and stained to allow fluorescence imaging of nuclei. Compounds (1 mM stock solutions) were serially diluted in half-log steps from the highest test concentration (1 micromol), and assayed over 10 concentrations with a maximum assay concentration of 0.1% DMSO. Automated fluorescence microscopy was carried out using a Molecular Devices ImageXpress Micro XL high-content imager, and images were collected with a 4× objective. 16-bit TIFF images were acquired and analyzed with MetaXpress 5.1.0.41 software.
GI50 is the concentration needed to reduce the observed growth by half (midway between the curve maximum and the time zero value). […] In rare instances, values <0 or >10 may be observed. […] Curve-fitting, calculations, and report generation was performed using a custom data reduction engine and MathIQ based software (AIM).

A431 = test: OncoPanel cell proliferation assay, A431; assay type: cell-based, human
Description: (§1) Cells were grown in RPMI 1640, 10% FBS, 2 mM L-alanyl-L-glutamine, 1 mM Na pyruvate, or a special medium. Cells were seeded into 384-well plates and incubated in a humidified atmosphere of 5% CO2 at 37° C. Compounds were added the day following cell seeding. At the same time, a time zero untreated cell plate was generated. After a 3-day incubation period, cells were fixed and stained to allow fluorescence imaging of nuclei. Compounds (1 mM stock solutions) were serially diluted in half-log steps from the highest test concentration ([…]), and assayed over 10 concentrations with a maximum assay concentration of 0.1% DMSO. Automated fluorescence microscopy was carried out using a Molecular Devices ImageXpress Micro XL high-content imager, and images were collected with a 4× objective. 16-bit TIFF images were acquired and analyzed with MetaXpress 5.1.0.41 software.
(§2) Cell proliferation was measured by the fluorescence intensity of an incorporated nuclear dye. The output is referred to as the relative cell count, where the measured nuclear intensity is transformed to percent of control (POC) using the following formula: […]
(§3) Cellular response parameters were calculated using nonlinear regression to a sigmoidal single-site dose response model:
(§4) EC50 is the test compound concentration at the curve inflection point or half the effective response (parameter C of the fitted curve solution). GI50 is the concentration needed to reduce the observed growth by half (midway between the curve maximum and the time zero value). “Cell Count Activity Area” is an estimate of the integrated area above the curve (Barretina, et al. The Cancer Cell Line Encyclopedia enables predictive modelling of anticancer drug sensitivity. Nature 483: 603-607). […] In rare instances, values <0 or >10 may be observed. […] Curve-fitting, calculations, and report generation was performed using a custom data reduction engine and MathIQ based software (AIM).

RL95-2 = test: OncoPanel cell proliferation assay, RL95-2; assay type: cell-based, human
Description: as §1, §2, §3, §4

TF-1 = test: OncoPanel cell proliferation assay, TF-1; assay type: cell-based, human
Description: as §1, §2, §3, §4

U-87 MG = test: OncoPanel cell proliferation assay, U-87 MG; assay type: cell-based, human
Description: as §1, §2, §3, §4

SK-MEL-28 = test: OncoPanel cell proliferation assay, SK-MEL-28; assay type: cell-based, human
Description: as §1, §2, §3, §4

[1] = Homo sapiens, read-out: Cell Count EC50
[2] = Homo sapiens, read-out: Cell Count GI50
[3] = Homo sapiens, read-out: Cell Count IC50

What does the source list for `CO[C@H]1C[C@@H]2CC[C@@H](C)[C@@](O)(O2)C(=O)C(=O)N2CCCC[C@H]2C(=O)O[C@H]([C@H](C)C[C@H]2C[C@H]3C[C@@H]2C[C@@H]3O)CC(=O)[C@H](C)/C=C(\C)[C@@H](O)[C@@H](OC)C(=O)[C@H](C)C[C@H](C)/C=C/C=C/C=C/1C` [Formula II, C37-[(1R,2S,4R,5S)-5-hyhroxybicyclo[2.2.1]heptane] rapamycin]?
EC50 (SK-UT-1; Homo sapiens, SK-UT-1, read-out: Cell Count EC50): 1.51 nM; GI50 (SK-UT-1; Homo sapiens, SK-UT-1, read-out: Cell Count GI50): 11.3 nM; IC50 (SK-UT-1; Homo sapiens, SK-UT-1, read-out: Cell Count IC50): 38.2 nM; Cell Count Activity Area (SK-UT-1; SK-UT-1): 3.48; Relative cell count (%) Mean (SK-UT-1; SK-UT-1, 1.00E+00 microM): 47.0%; Relative cell count (%) Mean (SK-UT-1; SK-UT-1, 1.00E-01 microM): 59.0%; Relative cell count (%) Mean (SK-UT-1; SK-UT-1, 1.00E-02 microM): 76.1%; Relative cell count (%) Mean (SK-UT-1; SK-UT-1, 1.00E-03 microM): 82.8%; Relative cell count (%) Mean (SK-UT-1; SK-UT-1, 1.01E-04 microM): 114.4%; Relative cell count (%) Mean (SK-UT-1; SK-UT-1, 3.16E-01 microM): 53.3%; Relative cell count (%) Mean (SK-UT-1; SK-UT-1, 3.17E-02 microM): 61.4%; Relative cell count (%) Mean (SK-UT-1; SK-UT-1, 3.17E-03 microM): 75.4%; Relative cell count (%) Mean (SK-UT-1; SK-UT-1, 3.18E-04 microM): 96.2%; Relative cell count (%) Mean (SK-UT-1; SK-UT-1, 3.18E-05 microM): 116.9%; Cell Count Activity Area (A431): 1.43; Relative cell count (%) Mean (A431; 1.00E+00 microM): 71.4%; Relative cell count (%) Mean (A431; 1.00E-01 microM): 80.3%; Relative cell count (%) Mean (A431; 1.00E-02 microM): 85.0%; Relative cell count (%) Mean (A431; 1.00E-03 microM): 94.6%; Relative cell count (%) Mean (A431; 1.01E-04 microM): 103.1%; Relative cell count (%) Mean (A431; 3.16E-01 microM): 75.3%; Relative cell count (%) Mean (A431; 3.17E-02 microM): 81.8%; Relative cell count (%) Mean (A431; 3.17E-03 microM): 96.4%; Relative cell count (%) Mean (A431; 3.18E-04 microM): 102.0%; Relative cell count (%) Mean (A431; 3.18E-05 microM): 100.9%; EC50 (A431; Homo sapiens, A-431, Skin, Head/Neck, summary Table 5, read-out: EC50): 12 nM; EC50 (A431; Homo sapiens, A-431, read-out: Cell Count EC50): 12.1 nM; GI50 (A431; Homo sapiens, A-431, read-out: Cell Count GI50): > 1000 nM; IC50 (A431; Homo sapiens, A-431, read-out: Cell Count IC50): > 1000 nM; Cell Count Activity Area (RL95-2): 3.36; Relative cell count (%) Mean (RL95-2; 1.00E+00 microM): 48.1%; Relative cell count (%) Mean (RL95-2; 1.00E-01 microM): 51.9%; Relative cell count (%) Mean (RL95-2; 1.00E-02 microM): 61.8%; Relative cell count (%) Mean (RL95-2; 1.00E-03 microM): 69.2%; Relative cell count (%) Mean (RL95-2; 1.01E-04 microM): 91.3%; Relative cell count (%) Mean (RL95-2; 3.16E-01 microM): 51.5%; Relative cell count (%) Mean (RL95-2; 3.17E-02 microM): 53.8%; Relative cell count (%) Mean (RL95-2; 3.17E-03 microM): 62.6%; Relative cell count (%) Mean (RL95-2; 3.18E-04 microM): 78.8%; Relative cell count (%) Mean (RL95-2; 3.18E-05 microM): 95.1%; EC50 (RL95-2; [1]): 0.645 nM; GI50 (RL95-2; [2]): 1.18 nM; IC50 (RL95-2; [3]): > 1000 nM; Cell Count Activity Area (TF-1): 1.08; Relative cell count (%) Mean (TF-1; 1.00E+00 microM): 80.8%; Relative cell count (%) Mean (TF-1; 1.00E-01 microM): 80.1%; Relative cell count (%) Mean (TF-1; 1.00E-02 microM): 82.8%; Relative cell count (%) Mean (TF-1; 1.00E-03 microM): 88.7%; Relative cell count (%) Mean (TF-1; 1.01E-04 microM): 93.1%; Relative cell count (%) Mean (TF-1; 3.16E-01 microM): 79.6%; Relative cell count (%) Mean (TF-1; 3.17E-02 microM): 81.7%; Relative cell count (%) Mean (TF-1; 3.17E-03 microM): 80.8%; Relative cell count (%) Mean (TF-1; 3.18E-04 microM): 89.0%; Relative cell count (%) Mean (TF-1; 3.18E-05 microM): 94.4%; EC50 (TF-1; [1]): > 1000 nM; GI50 (TF-1; [2]): > 1000 nM; IC50 (TF-1; [3]): > 1000 nM; Cell Count Activity Area (U-87 MG): 3.76; Relative cell count (%) Mean (U-87 MG; 1.00E+00 microM): 48.9%; Relative cell count (%) Mean (U-87 MG; 1.00E-01 microM): 52.1%; Relative cell count (%) Mean (U-87 MG; 1.00E-02 microM): 70.4%; Relative cell count (%) Mean (U-87 MG; 1.00E-03 microM): 78.8%; Relative cell count (%) Mean (U-87 MG; 1.01E-04 microM): 101.1%; Relative cell count (%) Mean (U-87 MG; 3.16E-01 microM): 50.7%; Relative cell count (%) Mean (U-87 MG; 3.17E-02 microM): 60.4%; Relative cell count (%) Mean (U-87 MG; 3.17E-03 microM): 71.4%; Relative cell count (%) Mean (U-87 MG; 3.18E-04 microM): 85.3%; Relative cell count (%) Mean (U-87 MG; 3.18E-05 microM): 108.2%; EC50 (U-87 MG; [1]): 0.996 nM; GI50 (U-87 MG; [2]): 2.17 nM; IC50 (U-87 MG; [3]): 34.1 nM; Cell Count Activity Area (SK-MEL-28): 2.68; Relative cell count (%) Mean (SK-MEL-28; 1.00E+00 microM): 60.6%; Relative cell count (%) Mean (SK-MEL-28; 1.00E-01 microM): 69.8%; Relative cell count (%) Mean (SK-MEL-28; 1.00E-02 microM): 84.3%; Relative cell count (%) Mean (SK-MEL-28; 1.00E-03 microM): 91.6%; Relative cell count (%) Mean (SK-MEL-28; 1.01E-04 microM): 110.7%; Relative cell count (%) Mean (SK-MEL-28; 3.16E-01 microM): 66.4%; Relative cell count (%) Mean (SK-MEL-28; 3.17E-02 microM): 71.0%; Relative cell count (%) Mean (SK-MEL-28; 3.17E-03 microM): 85.4%; Relative cell count (%) Mean (SK-MEL-28; 3.18E-04 microM): 94.6%; Relative cell count (%) Mean (SK-MEL-28; 3.18E-05 microM): 102.8%; EC50 (SK-MEL-28; Homo sapiens, Skin, Melanoma, summary Table 5, read-out: EC50): 4.8 nM; EC50 (SK-MEL-28; [1]): 4.71 nM; GI50 (SK-MEL-28; [2]): 38.2 nM
